From patent US20230310518A1, “Compositions and Methods for Treating Infections of the Gastrointestinal Tract” (Icahn School of Medicine at Mount Sinai, priority 2020, published 2023)

Assays:
[1] = system: patients with rCDI; experiment: Validation of bacterial strain engraftment through culturing from donor and recipient post-FMT; assay type: in vivo, human; details: 8 weeks post-FMT; number of strains of the species
Description: The isolation and sequencing of the transmitted strains from both the donor and the recipient represents a gold standard validation and verification of the commensal Koch’s postulates. […] The inventors cultured strains from 6 recipients both pre- and post-FMT (FIG. 2A) and compared the strain composition to that from the donor, to experimentally validate bacterial strain transmission.

[2] = system: strains included in MTC01; experiment: Antibiotic susceptibility, MIC by CLSI standards (Micromyx) and in-house etest; assay type: cell-based; details: highest value of CLSI and etest methods
Description: To be suitable for human trials, the strains in the bacterial consortium must be cultivatable in growth media that is free of animal products. The inventors discovered that all 16 bacterial strains can be cultured in a specific animal free media LYH_VIB (Table 7). All strains reach sufficient optical density (OD600) and potency (CFU/mL) cultured in LYH_VIB to be manufactured for human trials (Table 5). For safety considerations, the inventors focused on bacterial consortium strains that would be susceptible to multiple antibiotics. The inventors tested susceptibility to a range of antibiotics for all strains included in MTC01 and the minimal inhibitory concentration (MIC) was determined according to guidelines of the Clinical and Laboratory Standards Institute (CLSI). All strains were susceptible to multiple antibiotics (Table 6). […] The inventors confirmed that all 16 strains were strict anaerobes with no bacterial growth documented for any of the strains under aerobic conditions as confirmed by total aerobic microbial count (TAMC).
Each strain is susceptible to multiple antibiotics, and all strains are susceptible to three antibiotics (SAM, AMC, MEM). Minimum inhibitory concentrations (MIC) were determined by a CRO [Micromyx, LLC] according to CLSI standards and in-house by etest, keeping the highest value between the two methods: vancomycin (VAN), metronidazole (MTZ), tigecycline (TGC), ampicillin/sulbactam (SAM), amoxicillin/clavulanic acid (AMC), meropenem (MEM), piperacillin/tazobactam (TZP), clindamycin (CLI), ceftriaxone (CRO), moxifloxacin (MOX). […] Finally, multiple test fermentations were used to determine that the volumes for each manufacturing run are well within the 8L capacity of our current manufacturing set-up.

Compound	Cultured in both donor and recipient post-FMT at 8 weeks [1] [strains]	susceptibility of all MTC01 strains to the antibiotic [2]
Parabacteroides distasonis	3	–
amoxicillin/clavulanic acid [AMC]	–	susceptible
C[C@@H](O)[C@H]1C(=O)N2C(C(=O)O)=C(S[C@@H]3CN[C@H](C(=O)N(C)C)C3)[C@H](C)[C@H]12 [MEM, meropenem]	–	susceptible
Bifidobacterium longum	4	–
Bacteroides cellulosilyticus	1	–
Bacteroides fragilis	1	–
ampicillin/sulbactam [SAM]	–	susceptible
